Source: patent publication US7582649B2, “Hydroxy alkyl substituted 1,3,8-triazaspiro[4.5]decan-4-one derivatives useful for the treatment of ORL-1 receptor mediated disorders” (Janssen Pharmaceutica, NV, priority 2002, dated 2009)

Key:
mu opioid receptor = mu opioid receptor (Homo sapiens, UniProt P35372); experiment: Filtration binding assay: mu opioid receptor
kappa opioid receptor = kappa opioid receptor (Homo sapiens, UniProt P41145); experiment: Filtration binding assay: kappa opioid receptor
Chain of kappa opioid receptor (P41145 whole entry): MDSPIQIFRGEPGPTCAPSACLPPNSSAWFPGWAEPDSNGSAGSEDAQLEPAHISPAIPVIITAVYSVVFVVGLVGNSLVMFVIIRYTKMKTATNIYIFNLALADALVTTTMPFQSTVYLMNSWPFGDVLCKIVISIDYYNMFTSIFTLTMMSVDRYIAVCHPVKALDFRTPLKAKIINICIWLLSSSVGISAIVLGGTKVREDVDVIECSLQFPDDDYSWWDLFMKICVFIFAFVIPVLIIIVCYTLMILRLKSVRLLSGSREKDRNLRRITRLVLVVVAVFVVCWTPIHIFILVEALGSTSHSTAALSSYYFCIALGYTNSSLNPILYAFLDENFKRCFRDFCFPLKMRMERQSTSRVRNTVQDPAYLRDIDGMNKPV

Chain of mu opioid receptor (P35372 whole entry): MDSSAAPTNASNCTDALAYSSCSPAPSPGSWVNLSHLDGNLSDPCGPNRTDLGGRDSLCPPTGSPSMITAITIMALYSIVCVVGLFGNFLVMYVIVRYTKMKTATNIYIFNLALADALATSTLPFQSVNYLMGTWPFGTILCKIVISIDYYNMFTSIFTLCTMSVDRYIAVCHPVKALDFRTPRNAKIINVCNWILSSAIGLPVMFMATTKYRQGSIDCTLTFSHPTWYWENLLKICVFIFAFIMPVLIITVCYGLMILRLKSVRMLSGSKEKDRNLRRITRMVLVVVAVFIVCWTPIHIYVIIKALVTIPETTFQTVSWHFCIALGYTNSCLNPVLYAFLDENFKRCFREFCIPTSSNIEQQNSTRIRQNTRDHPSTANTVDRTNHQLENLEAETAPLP

SMILES	IC50 (mu opioid receptor) [nM]	IC50 (kappa opioid receptor) [nM]	Ki (mu opioid receptor) [nM]
O=C1N(C[C@@H](O)CNc2ccc(C3CCCCC3)cc2)CN(c2ccc(F)cc2)C12CCN(CC1CCCCCCC1)CC2 [compound 285]	4780	2690	
CN(C)CCN(Cc1ccccc1)C[C@H](O)CN1CN(c2ccc(F)cc2)C2(CCN(Cc3c(Cl)cccc3C(F)(F)F)CC2)C1=O [compound 459]	> 10000	3210	
O=C1N(C[C@H](O)CNCCc2ccc3c(c2)OCO3)CN(c2ccc(F)cc2)C12CCN(Cc1ccc(Cl)cc1)CC2 [compound 268]	950		
O=C1N(C[C@@H](O)CNc2ccc(Br)cn2)CN(c2ccc(F)cc2)C12CCN(CC1CCCCCCC1)CC2 [compound 13]	620	120	
CCCCN(Cc1ccccc1)C[C@H](O)CN1CN(c2ccc(F)cc2)C2(CCN(Cc3c(C)c(C)c(C)c(C)c3C)CC2)C1=O [Compound #280, 3-[3-(Benzyl-butyl-amino)-2-(S)-hydroxy-propyl]-1-(4-fluoro-phenyl)-8-pentamethylphenylmethyl-1,3,8-triaza-spiro[4.5]decan-4-one]	2520	1080	
O=C1N(C[C@@H](O)CN(Cc2ccccc2)C[C@@H]2CCCCC[C@@H]2O)CN(c2ccc(F)cc2)C12CCN(CC1CCCCCCC1)CC2 [compound 291]	4560	570	
COc1cc(OC)c(CNC[C@H](O)CN2CN(c3ccc(F)cc3)C3(CCN(C4Cc5cccc6cccc4c56)CC3)C2=O)c(OC)c1 (mixture of isomers) [compound 367]	1860	360	
COc1cc(CCNC[C@@H](O)CN2CN(c3ccc(F)cc3)C3(CCN(Cc4ccc(Cl)cc4)CC3)C2=O)c([N+](=O)[O-])cc1OC [compound 269]	2490		
COC(=O)C(N)CSC[C@H](O)CN1CN(c2ccc(F)cc2)C2(CCN(CC3CCCCCCC3)CC2)C1=O (stereo partly shown) [compound 460]	900	830	
O=C1N(C[C@@H](O)CN(CCc2ccccc2)Cc2ccccc2)CN(c2ccc(F)cc2)C12CCN(CC1CCCCCCC1)CC2 [compound 65]	580	510	
CCCCN(CCCC)CCCNC[C@H](O)CN1CN(c2ccc(F)cc2)C2(CCN(C3Cc4cccc5cccc3c45)CC2)C1=O (mixture of isomers) [compound 338]	740	140	
O=C1N(C[C@@H](O)CN(Cc2ccccc2)C[C@@H]2CCCC[C@@H]2O)CN(c2ccc(F)cc2)C12CCN(CC1CCCCCCC1)CC2 [compound 290]	930		
COc1ccc(CNC[C@H](O)CN2CN(c3ccc(F)cc3)C3(CCN(C4Cc5cccc6cccc4c56)CC3)C2=O)cc1OC (mixture of isomers) [compound 307]	750	210	
CNCCNC[C@@H](O)CN1CN(c2ccc(F)cc2)C2(CCN(Cc3cccc4cccc(C)c34)CC2)C1=O [compound 661]			800
CSc1cccc(C(=O)N(Cc2ccc(C)cc2)C[C@H](O)CN2CN(c3ccc(F)cc3)C3(CCN(CC4CCCCCCC4)CC3)C2=O)n1 [compound 455]	5160	380	
O=C1N(C[C@@H](O)CNCc2ccc([N+](=O)[O-])cc2)CN(c2ccc(F)cc2)C12CCN(CC1CCCCCCC1)CC2 [compound 23]	9200	490	
COc1cc(CNC[C@H](O)CN2CN(c3ccc(F)cc3)C3(CCN(CC4CCCCCCC4)CC3)C2=O)cc(OC)c1OC [Compound #43]	540	320	
CCOc1ccccc1NC[C@H](O)CN1CN(c2ccc(F)cc2)C2(CCN(CC3CCCCCCC3)CC2)C1=O [compound 281]	580	960	
O=C1N(C[C@@H](O)CNCc2ccccc2Br)CN(c2ccc(F)cc2)C12CCN(CC1CCCCCCC1)CC2 [Compound #44]	1130	160	
O=C1N(C[C@@H](O)CNCc2cccc(C(F)(F)F)c2)CN(c2ccc(F)cc2)C12CCN(CC1CCCCCCC1)CC2 [Compound #33]	> 10000	1160	
O=C1N(C[C@@H](O)CN2CCN(c3cccc(C(F)(F)F)c3)CC2)CN(c2ccc(F)cc2)C12CCN(Cc1cc(C(F)(F)F)cc(C(F)(F)F)c1)CC2 [compound 683]	≥ 10000	≥ 10000	
COc1ccc(CNC[C@H](O)CN2CN(c3ccc(F)cc3)C3(CCN(CC4CCCCCCC4)CC3)C2=O)cc1OC [compound 22]	600	300	
COc1ccc(CCN(C)C[C@H](O)CN2CN(c3ccc(F)cc3)C3(CCN(Cc4c(Cl)cccc4C(F)(F)F)CC3)C2=O)cc1OC [compound 457]	> 10000	9430	
O=C1N(C[C@@H](O)CNc2ccncc2)CN(c2ccc(F)cc2)C12CCN(Cc1cc(C(F)(F)F)cc(C(F)(F)F)c1)CC2 [compound 608]	≥ 10000	≥ 10000	
O=C1N(C[C@@H](O)CN(Cc2ccccc2)C[C@@H]2CCC[C@@H]2O)CN(c2ccc(F)cc2)C12CCN(CC1CCCCCCC1)CC2 [compound 289]	1390	190	
CCCCN(Cc1ccccc1)C[C@H](O)CN1CN(c2ccc(F)cc2)C2(CCN(Cc3cc(C(F)(F)F)cc(C(F)(F)F)c3)CC2)C1=O [compound 671]	≥ 10000	≥ 10000	

SMILES	IC50 (mu opioid receptor) [nM]	IC50 (kappa opioid receptor) [nM]	Ki (mu opioid receptor) [nM]
COc1cc(CNC[C@H](O)CN2CN(c3ccc(F)cc3)C3(CCN(C4Cc5cccc6cccc4c56)CC3)C2=O)cc(OC)c1 (mixture of isomers) [compound 324]	110	230	
COc1ccc(CCN(C)C[C@H](O)CN2CN(c3ccc(F)cc3)C3(CCN(Cc4ccc5ccccc5c4)CC3)C2=O)cc1OC [compound 263]	590		
O=C1N(C[C@@H](O)CNCCc2ccccc2)CN(c2ccc(F)cc2)C12CCN(CC1CCCCCCC1)CC2 [Compound #11]	820	290	
COc1ccc(CNC[C@@H](O)CN2CN(c3ccc(F)cc3)C3(CCN(Cc4cccc5cccc(C)c45)CC3)C2=O)cc1 [compound 392]	> 10000	1390	
O=C1N(C[C@@H](O)CNCc2ccc(Br)cc2)CN(c2ccc(F)cc2)C12CCN(CC1CCCCCCC1)CC2 [compound 15]	850	330	
O=C1N(C[C@H](O)CNCCc2cc3ccc(F)cc3[nH]2)CN(c2ccccc2)C12CCN(CCc1ccccc1-c1cccs1)CC2 [compound 142]	104		
COc1cc(CNC[C@H](O)CN2CN(c3ccc(F)cc3)C3(CCN(C4Cc5cccc6cccc4c56)CC3)C2=O)cc(OC)c1OC (mixture of isomers) [compound 320]	340	120	
COc1ccc(CCN(C)C[C@@H](O)CN2CN(c3ccc(F)cc3)C3(CCN(Cc4cccc5cccc(C)c45)CC3)C2=O)cc1OC [compound 391]	> 10000	2180	
O=C1N(C[C@@H](O)CNCCc2cccs2)CN(c2ccc(F)cc2)C12CCN(CC1CCCCCCC1)CC2 [compound 26]	790	290	
O=C1N(C[C@@H](O)CN2CCN(c3cccc(C(F)(F)F)c3)CC2)CN(c2ccc(F)cc2)C12CCN(C1Cc3cccc4cccc1c34)CC2 (mixture of isomers) [compound 333]	240	390	
CCCCNC[C@H](O)CN1CN(c2ccc(F)cc2)C2(CCN(CC3CCCCCCC3)CC2)C1=O [compound 454]	510	120	
COc1ccccc1CNC[C@H](O)CN1CN(c2ccc(F)cc2)C2(CCN(CC3CCCCCCC3)CC2)C1=O [compound 14]	1200	400	
O=C1N(C[C@@H](O)CNc2ccc(-c3ccccc3)cc2)CN(c2ccc(F)cc2)C12CCN(CC1CCCCCCC1)CC2 [compound 9]	940	1400	
CN(C)c1ccc(CNC[C@@H](O)CN2CN(c3ccccc3)C3(CCN(CCc4ccccc4-c4cccs4)CC3)C2=O)cc1 [compound 139]	103		
CCCCN(Cc1ccccc1)C[C@H](O)CN1CN(c2ccc(F)cc2)C2(CCN(Cc3c(Cl)cccc3C(F)(F)F)CC2)C1=O [Compound #456, 3-[3-(Benzyl-butyl-amino)-2-(S)-hydroxy-propyl]-8-(2-chloro-6-trifluoromethyl-benzyl)-1-(4-fluoro-phenyl)-1,3,8-triaza-spiro[4.5]decan-4-one]	> 10000	> 10000	
O=C1N(C[C@@H](O)CNCCN2CCOCC2)CN(c2ccc(F)cc2)C12CCN(Cc1ccc3ccccc3c1)CC2 [compound 259]	500		
O=C1N(C[C@@H](O)CNCc2ccc(Cl)cc2Cl)CN(c2ccc(F)cc2)C12CCN(CC1CCCCCCC1)CC2 [compound 31]	2930	280	
O=C1N(C[C@@H](O)CN(CCc2ccccc2)Cc2ccccc2)CN(c2ccc(F)cc2)C12CCN(C1Cc3cccc4cccc1c34)CC2 (mixture of isomers) [compound 313]	330	500	
O=C1N(C[C@@H](O)CNCCc2ccc3c(c2)OCO3)CN(c2ccc(F)cc2)C12CCN(Cc1ccc3ccccc3c1)CC2 [compound 262]	850		
O=C1N(C[C@@H](O)CN(CCc2ccccc2)Cc2ccccc2)CN(c2ccccc2)C12CCN(CCc1ccccc1-c1cccs1)CC2 [compound 230]	152		
COc1ccc(CCN(C)C[C@H](O)CN2CN(c3ccc(F)cc3)C3(CCN(Cc4ccc(Cl)cc4)CC3)C2=O)cc1OC [compound 270]	410		
O=C1N(C[C@@H](O)CN2C=CCC2)CN(c2ccc(F)cc2)C12CCN(CC1CCCCCCC1)CC2 [compound 70]	630		
CNC[C@@H](O)CN1CN(c2ccc(F)cc2)C2(CCN(Cc3cccc4cccc(C)c34)CC2)C1=O [Compound #660, 1-(4-Fluoro-phenyl)-3-(2-(R)-hydroxy-3-methylamino-propyl)-8-(8-methyl-naphthalen-1-ylmethyl)-1,3,8-triaza-spiro[4.5]decan-4-one]			870
Cc1cccc2cccc(CN3CCC4(CC3)C(=O)N(C[C@H](O)CN3CCC(O)C3)CN4c3ccc(F)cc3)c12 (stereo partly shown) [compound 712]			1950
Cc1cccc2cccc(CN3CCC4(CC3)C(=O)N(C[C@H](O)CN3CC[C@@H](N(C)C)C3)CN4c3ccc(F)cc3)c12 [compound 708]			490
COc1ccc(CCNC[C@@H](O)CN2CN(c3ccccc3)C3(CCN(CCc4ccccc4-c4cccs4)CC3)C2=O)cc1 [compound 145]	104		
